Source: ChEMBL document CHEMBL3988442, “University of Dundee, Small-Polar-MMV Screening Library” (2021)
“And” between values parts separate entries of the source, which are not always exact repeats. Equal entries are not always repeated.

System: Plasmodium falciparum
Assay: Calibr Malaria Delayed Death Assay SOP
Type: functional, organism-based
Settings: for IC50: Plasmodium falciparum

Structure (SMILES) | pIC50 | IC50 [µM]
Cc1ccc(CNC(C)c2cc(F)ccc2N2CCN(C)CC2)o1 (stereo not given) | 6.454 | 0.329
O=C(O)C(F)(F)F.O=C(O)C(F)(F)F.c1cncc(N2CCCC3(CCN(CCN4CCCC4)CC3)C2)c1 | 5.977 | 1.02
CCN1CCCC(CNC(=O)C2(c3cc(C)cc(C)c3)CCC2)C1 (stereo not given) | 6.008 | 1.51
COc1ccc(N2CCCC3(C2)CN(c2nncs2)CCO3)cc1 (stereo not given) | 6.845 | 0.173
O=C(NC1CCN(CC2CC2)C1)N1CCC(OC2CCCCC2)CC1 (stereo not given) | 6.591 | 0.332
CCN(CC)CCN(C)c1nc(-c2ccc(Cl)cc2)nc2c1CNC2 | 6.071 | 1.02
Cc1ccc(CN2CCC3(CC2)CCN(Cc2ccco2)CC3)cc1.O=C(O)C(F)(F)F.O=C(O)C(F)(F)F | 6.236 | 0.555
Cl.Fc1cccc(F)c1Cn1c(C2CCNCC2)cc2cccnc21 | 6.523 | 0.307
Cc1ccc(CN(CCN(C)C)Cc2c(C)nc3sccn23)o1.O=C(O)CC(O)(CC(=O)O)C(=O)O | 6.093 | 0.506
Cc1ccsc1CN(Cc1cccnc1)C1CC(C)(C)NC(C)(C)C1.O=C(O)CC(O)(CC(=O)O)C(=O)O | 6.511 | 0.29
I.c1ccc(Sc2ccc3c(c2)OCO3)c(CNC2=NCCN2)c1 | 6.103 | 0.604
Cc1ccc2c(c1)CN(C(=O)C1CCCCC1)C(CN(C)C)CO2.Cl (stereo not given) | 6.082 | 0.88
CN(Cc1ncc[nH]1)c1nc(-c2ccccn2)nc2c1CCNCC2 | 6.511 | 0.292
Fc1cccc(CN2C[C@@H]3CN(Cc4ccccn4)C[C@@H]3C2)c1.O=C(O)C(F)(F)F.O=C(O)C(F)(F)F | 6.169 | 0.531
Nc1cc(-c2c[nH]nc2C2CCCN2CCCc2ccccc2)ccn1 (stereo not given) | 6.087 | 0.785
Cc1noc(C)c1CNCc1ccccc1N(C)C1CCN(C)CC1 | 6.243 | 0.489
Cc1cc(NC(=O)NC2CCN(C(C)C)CC2)c2ncccc2c1 | 5.97 | 0.796
Cc1cc(Cl)ccc1S(=O)(=O)NCC(C)N1CCN(C)CC1 (stereo not given) | 6.144 | 0.444
CC(C)C(=O)N1CCCC2(CCCN2CC2CCCC2)C1.O=C(O)C(F)(F)F (stereo not given) | 5.828 | 1.15
Cc1cc(CN2CCc3nc(-c4ccncc4)nc(O)c3CC2)c(C)s1 | 5.926 and 6.258 | 
CC(C)(NCc1cccc(O)c1)c1ccc2c(c1)OCO2 | 5.935 | 0.894
CC(C)[C@@H]1CN(C(=O)C2(c3ccccc3)CCN(C)CC2)C[C@H]1N(C)C | 6.113 | 0.71

Structure (SMILES) | pIC50 | IC50 [µM]
COc1cccc(OC)c1CN1CC(=O)N(c2ccc(C)cc2)CC1C (stereo not given) | 5.987 | 0.877
c1ccc(CCCN2CCN(c3ccc4nncn4n3)CC2)cc1 | 5.983 | 1.41
Cc1cc(F)ccc1CN1CCC(O)(CN2CCCCC2)C1 (stereo not given) | 6.047 | 1.75
CC(C)N1CCC2(CCCN(c3nccc(C(F)(F)F)n3)C2)CC1.O=C(O)C(F)(F)F | 6.114 | 0.55
c1ccc(C2CN(C3CC3)CC3(CCN(Cc4ncc[nH]4)CC3)C2)cc1 (stereo not given) | 6.233 and 5.873 | 
C=Cc1cccc(CN2C[C@@H](CN(C)CC)[C@@H](CO)C2)c1 | 5.976 | 1.05
Fc1ccccc1C1(CNC2CCOC3(CCOCC3)C2)CCCC1 (stereo not given) | 6.12 | 0.796
COCC(O)CN(C)c1ccnc2cc(Br)ccc12 (stereo not given) | 6.091 | 0.834
COc1cc(CNCC(O)c2cccc(F)c2)cc2c1OCO2.Cl (stereo not given) | 6.133 | 0.729
Cn1nc(CN2CCCCC(N)C2)c2c(Cl)cccc21 (stereo not given) | 6.151 | 0.8
Cc1cccc(CN2CCC(Cc3ccccc3F)CC2)n1 | 6.094 | 0.776
COc1ccccc1CCN1CCCC(CN(C)Cc2ccc(C)o2)C1 (stereo not given) | 5.915 | 1.03
CN1CCC2(Cc3ccccc3CN(C(=O)Cc3cccc(Cl)c3)C2)C1 (stereo not given) | 6.082 | 0.836
Cc1ccc(CN(c2cc(C)nc3nc(C(F)(F)F)nn23)C2CC2)cc1 | 6.41 | 0.282
Cc1ccc(CN(Cc2cccnc2)C2CC(C)(C)NC(C)(C)C2)s1.O=C(O)CC(O)(CC(=O)O)C(=O)O | 6.05 | 0.727
Cc1cccc(C)c1Nc1noc2c1CN(C(=O)c1ccnn1C)CC2 | 6.86 | 0.142
CCN1CCN(c2ccc(F)cc2C(C)NCc2cscn2)CC1 (stereo not given) | 5.999 | 0.907
Cc1cccc(OC(C)C(=O)NCC2(N(C)C)CCCC2)c1 (stereo not given) | 6.11 | 0.76
CN1CCN(c2ccccc2NC(=O)NCCc2ccccc2)CC1 | 6.032 | 0.998
Cc1cn2c(n1)C(CNCc1ccc(C)s1)CCC2 (stereo not given) | 6.227 | 0.722
Cc1cc(C)n(C2CN(CC(O)c3ccc(C(F)(F)F)cc3)C2)n1 (stereo not given) | 5.98 | 1.03
COc1cccc(Cn2c(C3CCNCC3)cc3cccnc32)c1.Cl | 6.096 | 0.931

Structure (SMILES) | pIC50 | IC50 [µM]
COc1ccc(CCC(=O)NCCN2CCC(c3cccs3)CC2)cc1 | 6.185 | 0.781
CCC(C)(C)n1nnnc1C(c1cccs1)N1CCc2ccccc2C1 (stereo not given) | 6.38 | 0.55
CC(C)N(C)Cc1cnc2n1CCN(C(=O)NC1CCCC1)C2.O=C(O)C(F)(F)F | 6.607 | 0.275
CCC1CN(CC(=O)NCCN2CCCCC2)c2ccccc2S1 (stereo not given) | 6.107 | 0.937
Cc1c(C)n(CC(O)CN2CCN(CCO)CC2)c2c(Cl)cccc12.Cl (stereo not given) | 6.075 | 0.95
Cc1ncc(CN(Cc2ccccn2)Cc2ccccc2Cl)n1C.O=C(O)CC(O)(CC(=O)O)C(=O)O | 6.286 | 0.491
CC(NCC1CCN(CCO)CC1)c1ccc(OC(F)(F)F)cc1 (stereo not given) | 6.465 | 0.343
Cc1oc(-c2cc(F)cc(F)c2)nc1CN1C[C@@H](C)NC[C@@H]1C | 5.947 | 0.719
CCC(CC)(CN)NC(C)c1ccccc1 (stereo not given) | 6.003 | 0.924
CCN1CCN(c2ccc(F)cc2C(C)NCc2ccccn2)CC1 (stereo not given) | 6.099 | 0.651
Cn1cc(CN2CCCC(CCc3ccc(F)cc3F)C2)cn1 (stereo not given) | 5.983 | 0.992
Oc1cccc2ccc(CN3CCC4(CCNCC4)C3)nc12 | 6.257 | 0.736
CCC1CN(C(=O)c2ccc(Cl)cc2O)CCN1C(C)C (stereo not given) | 5.81 | 1.13
Cc1cnccc1CN1CC[C@@](C)(O)[C@H](Oc2cccc(F)c2)C1 | 5.517 | 2.33
COCCCN1CCCN(C(C)C(=O)Nc2cccc(I)c2)CC1 (stereo not given) | 6.54 | 0.483
Fc1cnc(N2CCCC3(CCN(Cc4ccoc4)C3)C2)nc1.O=C(O)C(F)(F)F.O=C(O)C(F)(F)F (stereo not given) | 5.93 | 1.21
CN(Cc1ccsc1)c1nc(-c2ccccn2)nc2c1CCNCC2 | 6.41 | 0.399
Cl.OC(CNCc1ccccc1C(F)(F)F)c1ccccc1 (stereo not given) | 6.179 | 0.709
Cc1ccc(S(=O)(=O)N2CCC(N3CCCCC3)CC2)cc1C | 5.751 | 2.13
CCNc1ccnc(CN2CCCC2C(=O)Nc2nccs2)c1 (stereo not given) | 6.462 | 0.367
CN(Cc1ccccc1-n1cccn1)C[C@@H]1CCCN2CCCC[C@H]12 | 6.129 | 0.852
O=C(Cn1ccc2ccc(Br)cc21)NC[C@@H]1CCCN2CCCC[C@H]12 | 5.89 | 1.28

Structure (SMILES) | pIC50 | IC50 [µM]
Cc1ccccc1CN(CCN(C)C)Cc1ccc(S(C)(=O)=O)cc1 | 5.997 | 0.89
Cc1ccc(CN2CCC3(CC2)CCN(Cc2ccoc2)CC3)cc1.O=C(O)C(F)(F)F.O=C(O)C(F)(F)F | 6.821 | 0.202
NCC(c1ccccc1)N1CCc2sccc2C1 (stereo not given) | 6.206 | 0.699
CC(C)=CCN1CCC2(CC1)c1ccccc1[C@@H](N1CCSCC1)[C@@H]2O | 5.994 | 0.991
Cc1ccsc1CN(CCCN(C)C)Cc1ccccn1 | 6.353 | 0.409
Cc1ccc(C)c(OCCNC(=O)[C@@H]2CCCCN2)c1 | 6.461 | 0.362
CNc1cc(C)nc(NC2CCCN(C3Cc4ccccc4C3)C2)n1 (stereo not given) | 6.074 | 0.775
Cc1ccc(CN2CC[C@H]3[C@H](CC(Cn4cccn4)N3C)C2)s1.O=C(O)C(F)(F)F.O=C(O)C(F)(F)F.O=C(O)C(F)(F)F (stereo not given in full) | 6.142 | 0.814
Cn1cc(CN2CCCC(CCc3ccc(F)cc3)C2)cn1 (stereo not given) | 5.962 | 1.06
CC1(C)CN(C(CNC2=NCCN2)c2ccc(Cl)cc2)CCO1.I (stereo not given) | 6.344 | 0.478
Cc1ccc(C2(CN3CCN(Cc4cnc(C)n4C)CC3)CC2)cc1.Cl | 6.615 | 0.255
CN1CCN(S(=O)(=O)c2ccc(Cl)c(Cl)c2)c2cnccc21 | 6.238 | 0.557
CN(C)[C@@H]1CCN(c2ncc(F)cn2)[C@H]1Cc1ccccc1.O=C(O)C(F)(F)F.O=C(O)C(F)(F)F | 6.038 | 0.868
COc1cc(CNCC(O)c2ccc(F)c(F)c2)cc2c1OCO2 (stereo not given) | 6.45 | 0.46
c1cc(-c2n[nH]cc2-c2ccnc(N3CCCC3)n2)ccn1 | 7.446 | 0.0305
O=S(=O)(NC[C@H]1C[C@@H]2CCN1C[C@@H]2CN1CCCC1)c1ccc(Cl)cc1 | 5.945 | 1.13
O=C(c1scc2c1OCCO2)N1CCOC(CCc2ccccc2)C1 (stereo not given) | 6.32 | 0.386
CN(CCO)C[C@@H]1CN(C2CCN(c3ccccc3Cl)CC2)C[C@@H]1CO | 6.408 | 0.316
CC(O)CN1CCC(CNCc2cccc(Br)c2)CC1 (stereo not given) | 6.286 | 0.528
CN1CCC(N(C)C[C@H]2CC[C@@H](Cc3ccc4occc4c3)O2)CC1 | 6.011 | 0.993
